The values below come from patent US10766869B2, “Triazoles for the treatment of demyelinating dieases” (Vertex Pharmaceuticals Incorporated, priority 2015, dated 2020).

Like-named read-outs stand apart in the source and are kept apart here.

The experiment has as its system primary rat mixed cortical cells. Put plainly: In vitro myelination assay (MBP positive myelin strands, fold myelin pixels above background). The format is cell-based. The following applies: Rattus norvegicus; for fold induction at 1 µM: 1.0 μM compound; for fold induction at 10 µM: 10.0 μM compound. Summed up:
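Compounds at 1.0 and 10.0 μM were incubated 14 days with dissociated P1 rat cortical cells, which were then fixed and immunostained for MBP. Myelination was scored as fold MBP myelin pixels per well over the no-compound baseline.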

Setting [1] is: relative to baseline of no added compound, read-out: Fold myelin pixels above background.
The mark [2] stands for this setting: relative to baseline of no added compound, read-out: Fold myelin pixels above background, 1.0 μM.
The mark [3] stands for this setting: relative to baseline of no added compound, read-out: Fold myelin pixels above background, 10.0 μM.
[4] abbreviates: read-out: Fold myelin pixels above background relative to baseline of no added compound.

For the compound `Cc1cc(CN2CCN(C3COC3)CC2)cc(Nc2ncn(-c3cnccn3)n2)c1` [Compound 583, N-[3-methyl-5-[[4-(oxetan-3-yl)piperazin-1-yl]methyl]phenyl]-1-pyrazin-2-yl-1,2,4-triazol-3-amine], under setting [1], the fold induction at 1 µM was 10 to 100 and the fold induction at 10 µM lay in the range of 10 to 100.

`Cc1cc(Nc2ncn(-c3cc(F)cc(F)c3)n2)cc(N2CC(N3CCO[C@@H](C)C3)C2)c1` [Compound 730, 1-(3,5-difluorophenyl)-N-[3-methyl-5-[3-[(2S)-2-methylmorpholin-4-yl]azetidin-1-yl]phenyl]-1,2,4-triazol-3-amine]: under setting [1], the fold induction at 1 µM lay within 10 to 100 and the fold induction at 10 µM fell in the range of 10 to 100.

`Cc1cc(Nc2ncn(-c3ccccc3)n2)cc(N2CC(C)OC(C)C2)c1` (stereo not drawn) [Compound 306, N-[3-(2,6-dimethylmorpholin-4-yl)-5-methyl-phenyl]-1-phenyl-1,2,4-triazol-3-amine]: the fold induction at 1 µM under setting [2] is no more than 1. The fold induction at 10 µM under setting [3] was no more than 1.

As to `Clc1cc(Nc2ncn(-c3ccccc3)n2)cc(N2CCCC2)c1` [Compound 380, N-(3-chloro-5-pyrrolidin-1-yl-phenyl)-1-phenyl-1,2,4-triazol-3-amine], under setting [2], the fold induction at 1 µM lay in the range of 100 to 1000. Moreover, under setting [3], the fold induction at 10 µM lay within 10 to 100.

For the compound `Cc1cc(Nc2ncn(-c3cc(F)cc(F)c3)n2)nc(N2CCC(C)(O)CC2)c1` [Compound 569, 1-[6-[[1-(3,5-difluorophenyl)-1,2,4-triazol-3-yl]amino]-4-methyl-2-pyridyl]-4-methyl-piperidin-4-ol], under setting [1], the fold induction at 1 µM was 1 to 10 and the fold induction at 10 µM is 10 to 100.

In the case of `CCc1cc(Nc2ncn(-c3ccnc(OC)n3)n2)cc(N2CCN(C3COC3)CC2)c1` [Compound 314, N-[3-ethyl-5-[4-(oxetan-3-yl)piperazin-1-yl]phenyl]-1-(2-methoxypyrimidin-4-yl)-1,2,4-triazol-3-amine], the fold induction at 1 µM under setting [2] lay in the range of 10 to 100. In addition, the fold induction at 10 µM under setting [3] fell in the range of 10 to 100.

Regarding `N#Cc1cc(Nc2ncn(-c3cccnc3)n2)cc(N2CCOCC2)c1` [Compound 763, 3-morpholino-5-[[1-(3-pyridyl)-1,2,4-triazol-3-yl]amino]benzonitrile], under setting [1], the fold induction at 1 µM was 10 to 100 and the fold induction at 10 µM lay in the range of 10 to 100.

As for `Cc1cc(Nc2ncn(-c3cc(F)cc(F)c3)n2)cc(C2CN(C3COC3)C2)c1` [Compound 229, 1-(3,5-difluorophenyl)-N-[3-methyl-5-[1-(oxetan-3-yl)azetidin-3-yl]phenyl]-1,2,4-triazol-3-amine], the fold induction at 1 µM under setting [2] lay in the range of 100 to 1000. For the same compound, under setting [3], the fold induction at 10 µM was 100 to 1000.

Consider `COc1cc(OC)cc(-n2cnc(Nc3cc(C4CC4)nc(N4CCOCC4)c3)n2)c1` [Compound 210, 2-cyclopropyl-N-[1-(3,5-dimethoxyphenyl)-1,2,4-triazol-3-yl]-6-morpholino-pyridin-4-amine], for which, under setting [2], the fold induction at 1 µM was no more than 1. The fold induction at 10 µM under setting [3] lay within 100 to 1000.

In the case of `Cc1cc(Nc2ncn(-c3ncncc3F)n2)cc(N2CCN(C3COC3)CC2)c1` [Compound 291, 1-(5-fluoropyrimidin-4-yl)-N-[3-methyl-5-[4-(oxetan-3-yl)piperazin-1-yl]phenyl]-1,2,4-triazol-3-amine], the fold induction at 1 µM under setting [2] is no more than 1. The fold induction at 10 µM under setting [3] lay in the range of 1 to 10.

On to `Cc1cc(Nc2ncn(-c3cc(F)c(C#N)cc3F)n2)cc(N2CCN(C3COC3)CC2)c1` [Compound 66, 2,5-difluoro-4-[3-[3-methyl-5-[4-(oxetan-3-yl)piperazin-1-yl]anilino]-1,2,4-triazol-1-yl]benzonitrile], for which the fold induction at 1 µM under setting [2] fell in the range of 10 to 100. For the same compound, the fold induction at 10 µM under setting [3] fell in the range of 10 to 100.

For the compound `Cc1cc(N2CC(N3CCOCC3)C2)cc(Nc2ncn(-c3cc(F)cc(F)c3)n2)c1F` [Compound 870, 1-(3,5-difluorophenyl)-N-[2-fluoro-3-methyl-5-(3-morpholinoazetidin-1-yl)phenyl]-1,2,4-triazol-3-amine], under setting [4], the fold induction at 1 µM lay within 1 to 10 and the fold induction at 10 µM lay within 1 to 10.

As to `Cc1cc(Nc2ncn(-c3cc(F)cc(F)c3)n2)cc([C@]2(O)CCN(C3COC3)C2)c1` [Compound 487, (3R)-3-[3-[[1-(3,5-difluorophenyl)-1,2,4-triazol-3-yl]amino]-5-methyl-phenyl]-1-(oxetan-3-yl)pyrrolidin-3-ol], under setting [1], the fold induction at 1 µM was in the range of 100 to 1000 and the fold induction at 10 µM fell in the range of 1 to 10.

Consider `Cc1cc(Nc2ncn(-c3ccccc3)n2)cc(C2CCN(C3(CS(=O)(=O)c4ccccc4)COC3)CC2)c1` [Compound 51, N-[3-[1-[3-(benzenesulfonylmethyl)oxetan-3-yl]-4-piperidyl]-5-methyl-phenyl]-1-phenyl-1,2,4-triazol-3-amine], for which the fold induction at 1 µM under setting [2] lay in the range of 100 to 1000. Moreover, the fold induction at 10 µM under setting [3] was 100 to 1000.

Regarding `CC(=O)N1CCC(Oc2cc(C)cc(Nc3ncn(-c4cc(F)cc(F)c4)n3)c2)CC1` [Compound 805, 1-[4-[3-[[1-(3,5-difluorophenyl)-1,2,4-triazol-3-yl]amino]-5-methyl-phenoxy]-1-piperidyl]ethanone], under setting [4], the fold induction at 1 µM lay within 10 to 100 and the fold induction at 10 µM lay in the range of 1 to 10.

In the case of `Cc1cc(Nc2ncn(-c3cccc(OC(F)(F)F)c3)n2)cc(N2CCN(C3COC3)CC2)c1` [Compound 252, N-[3-methyl-5-[4-(oxetan-3-yl)piperazin-1-yl]phenyl]-1-[3-(trifluoromethoxy)phenyl]-1,2,4-triazol-3-amine], the fold induction at 1 µM under setting [2] is 1000 to 10000. Moreover, under setting [3], the fold induction at 10 µM lay within 10 to 100.

For the compound `Cc1cc(Nc2ncn(-c3cc(F)cc(F)c3)n2)cc(N2CC(N3CCOC[C@H]3C)C2)c1` [Compound 670, 1-(3,5-difluorophenyl)-N-[3-methyl-5-[3-[(3R)-3-methylmorpholin-4-yl]azetidin-1-yl]phenyl]-1,2,4-triazol-3-amine], under setting [1], the fold induction at 1 µM was 10 to 100 and the fold induction at 10 µM was in the range of 10 to 100.

Consider `Fc1cc(Nc2ncn(-c3cccc(F)c3)n2)cc(N2CCCC2)c1` [Compound 435, 1-(3-fluorophenyl)-N-(3-fluoro-5-pyrrolidin-1-yl-phenyl)-1,2,4-triazol-3-amine], for which, under setting [1], the fold induction at 1 µM fell in the range of 100 to 1000 and the fold induction at 10 µM fell in the range of 100 to 1000.

As for `Fc1cc(Nc2ncn(-c3cc(F)cc(F)c3)n2)cc(C2CCN(C3COC3)C2)c1` (stereo not drawn) [Compound 268, 1-(3,5-difluorophenyl)-N-[3-fluoro-5-[1-(oxetan-3-yl)pyrrolidin-3-yl]phenyl]-1,2,4-triazol-3-amine], the fold induction at 1 µM under setting [2] lay in the range of 100 to 1000. The fold induction at 10 µM under setting [3] is 1000 to 10000.

Take `Cc1cc(Nc2ncn(-c3ccc(F)c(F)c3)n2)cc(N2CCN(C3COC3)CC2)c1` [Compound 386, 1-(3,4-difluorophenyl)-N-[3-methyl-5-[4-(oxetan-3-yl)piperazin-1-yl]phenyl]-1,2,4-triazol-3-amine]: under setting [1], the fold induction at 1 µM is 100 to 1000 and the fold induction at 10 µM was in the range of 1000 to 10000.

For the compound `Fc1cc(Nc2ncn(-c3cccc(C(F)(F)F)c3)n2)cc(N2CCOCC2)c1` [Compound 181, N-(3-fluoro-5-morpholino-phenyl)-1-[3-(trifluoromethyl)phenyl]-1,2,4-triazol-3-amine], under setting [2], the fold induction at 1 µM is no more than 1. The fold induction at 10 µM under setting [3] lay in the range of 100 to 1000.

Regarding `Cc1cc(Nc2ncn(-c3ccccn3)n2)cc(N2CCCN(C3COC3)CC2)c1` [Compound 609, N-[3-methyl-5-[4-(oxetan-3-yl)-1,4-diazepan-1-yl]phenyl]-1-(2-pyridyl)-1,2,4-triazol-3-amine], under setting [1], the fold induction at 1 µM was in the range of 100 to 1000 and the fold induction at 10 µM lay in the range of 100 to 1000.

With `Cc1cc(Nc2ncn(-c3cc(F)cc(F)c3)n2)cc(N2CC(N3CCC(F)CC3)C2)c1` [Compound 617, 1-(3,5-difluorophenyl)-N-[3-[3-(4-fluoro-1-piperidyl)azetidin-1-yl]-5-methyl-phenyl]-1,2,4-triazol-3-amine], under setting [1], the fold induction at 1 µM lay within 10 to 100 and the fold induction at 10 µM was in the range of 10 to 100.

As for `COCCN1CCC(Nc2cc(C)cc(Nc3ncn(-c4cc(F)cc(F)c4)n3)c2)CC1` [Compound 930, N3-[1-(3,5-difluorophenyl)-1,2,4-triazol-3-yl]-N1-[1-(2-methoxyethyl)-4-piperidyl]-5-methyl-benzene-1,3-diamine], under setting [4], the fold induction at 1 µM was in the range of 10 to 100 and the fold induction at 10 µM was no more than 1.

As to `Cc1cc(Nc2ncn(-c3ccc(F)c(F)c3)n2)cc(N[C@H]2C[C@H](N3CCOCC3)C2)c1` (single isomer, unassigned) [Compound 792, N1-[1-(3,4-difluorophenyl)-1,2,4-triazol-3-yl]-5-methyl-N3-(3-morpholinocyclobutyl)benzene-1,3-diamine], under setting [4], the fold induction at 1 µM fell in the range of 10 to 100 and the fold induction at 10 µM is no more than 1.

In the case of `Cc1cc(N2CC(N3CCOCC3)C2)cc(Nc2ncn(-c3cc(F)cc(F)c3)n2)n1` [Compound 616, N-[1-(3,5-difluorophenyl)-1,2,4-triazol-3-yl]-6-methyl-4-(3-morpholinoazetidin-1-yl)pyridin-2-amine], under setting [1], the fold induction at 1 µM was 1 to 10 and the fold induction at 10 µM is no more than 1.

`Fc1cc(Nc2ncn(-c3cnccn3)n2)cc(N2CCN(C3COC3)CC2)c1` [Compound 598, N-[3-fluoro-5-[4-(oxetan-3-yl)piperazin-1-yl]phenyl]-1-pyrazin-2-yl-1,2,4-triazol-3-amine]: under setting [1], the fold induction at 1 µM was 1 to 10 and the fold induction at 10 µM is 1 to 10.
